Laboratory results as given in patent US6670487B1, “Method for removing impurities from oxidation products” (General Electric Company, priority 2002, dated 2003).

What was measured:
[1] = Solvent extraction of aqueous crude chlorophthalic acid solution: distribution coefficient K and selectivity beta of chlorophthalides; assay type: physicochemical; parameters: key to K values: K = chlorophthalide mass fraction organic phase / aqueous phase; key to beta values: beta = (phthalide/acid wt fraction, organic) ÷ (same ratio, water)
Description: In one embodiment the efficacy of a solvent extraction may be measured by the distribution coefficient, K, which is the mole fraction of specified solute in the organic solvent phase compared to the mole fraction of specified solute in the aqueous phase. In some particular embodiments an organic solvent is employed such that the value of the distribution coefficient, K, for phthalide in a product mixture comprising at least one phthalic acid is greater than 1. In other particular embodiments an organic solvent is employed such that the value of the distribution coefficient, K, for chlorophthalide in a product mixture comprising at least one chlorophthalic acid is greater than 1. In various particular embodiments an organic solvent is employed such that the value of the distribution coefficient, K, for chlorophthalide is in one embodiment in a range of between about 1.1 and about 5, and in another embodiment in a range of between about 1.1 and about 4. In a particular embodiment the distribution coefficient is measured for 4-chlorophthalide with water and various organic solvents such as toluene and xylene.
Another factor for measuring the efficacy of a solvent extraction is the selectivity factor, β, which compares the ratio of two components of interest in one phase to the ratio of the same two components in the other phase. In a particular embodiment the selectivity factor is measured for 4-chlorophthalide in relation to chlorophthalic acids in both water and organic solvent.
A 35 wt. % solution of crude chlorophthalic acid in water was prepared by adding appropriate amounts of 4- and 3-chlorophthalic anhydride (70/30 isomer ratio) along with a mixture of about 3 wt. % (based on crude chlorophthalic anhydride) of synthetic 4- and 7-chlorophthalide (produced by reduction of 3-chlorophthalic anhydride). […] A number of vials were prepared each containing 5 milliliters (ml.) of an aqueous phase comprising a certain concentration of crude chlorophthalic acid (5 wt. % to 35 wt. %, based on the weight of the entire aqueous phase and, optionally, acetic acid (0 wt. % to 36 wt. %, based on the weight of the entire aqueous phase). Each vial was then treated with 5 ml. of either toluene, o-dichlorobenzene (ODCB), or ortho-xylene. The vials were then shaken vigorously in a mechanical shaker for 50 minutes at a specified temperature (22° C., 42° C., or 60° C.). The phases were allowed to separate over several hours (actual phase separation occurred much quicker than this) and then each phase was sampled using a pipette. No stable emulsions were observed under the conditions which were examined. The organic phase was analyzed directly by GC (using biphenyl internal standard, following silylation of the product mixture), while for the aqueous phase, water was evaporated and solid residue was redissolved in organic solvent before GC analysis. The analytical data were used to calculate an equilibrium constant, K, which represented the ratio of chlorophthalides mass fraction in the organic phase to that in the aqueous phase. The analytical data were also used to calculate a selectivity constant, beta, which represented the quotient of [(wt. fraction of chlorophthalides in xylene)/(wt fraction of chlorophthalic acids in xylene)] divided by the quotient of [(wt fraction of chlorophthalides in water)/(wt fraction of chlorophthalic acids in water)]. The data in Table 1 show results of extractions performed at 22° C. with no acetic acid present.
The Procedure of Example 1 was repeated except that extractions were performed at 22 wt. % initial chlorophthalic acid concentration at 22° C. in the presence of different levels of acetic acid.
The procedure of Example 1 was repeated except that extractions were performed at different wt. % initial chlorophthalic acid concentration at 60° C. with no acetic acid present. […]

[2] = as above; assay type: physicochemical; parameters: key to K values: K = chlorophthalide mass fraction organic phase / aqueous phase; key to beta values: beta = (phthalide/acid wt fraction, organic) ÷ (same ratio, water); conditions: 22 wt.% chlorophthalic acid, 60° C.
[3] = ODCB/water, 9 wt.% acetic acid in initial aqueous phase, 22 wt.% chlorophthalic acid, 22° C.
[4] = ODCB/water, 10 wt.% acetic acid in initial aqueous phase, 22 wt.% chlorophthalic acid, 60° C.
[5] = ODCB/water, 12 wt.% chlorophthalic acid in aqueous phase, 22° C., no acetic acid
[6] = ODCB/water, 17 wt.% acetic acid in initial aqueous phase, 22 wt.% chlorophthalic acid, 22° C.
[7] = ODCB/water, 19 wt.% acetic acid in initial aqueous phase, 22 wt.% chlorophthalic acid, 60° C.
[8] = ODCB/water, 22 wt.% chlorophthalic acid in aqueous phase, 60° C., no acetic acid
[9] = ODCB/water, 23 wt.% chlorophthalic acid in aqueous phase, 22° C., no acetic acid
[10] = ODCB/water, 26 wt.% acetic acid in initial aqueous phase, 22 wt.% chlorophthalic acid, 22° C.
[11] = ODCB/water, 35 wt.% acetic acid in initial aqueous phase, 22 wt.% chlorophthalic acid, 22° C.
[12] = ODCB/water, 35 wt.% chlorophthalic acid in aqueous phase, 22° C., no acetic acid
[13] = ODCB/water, 35 wt.% chlorophthalic acid in aqueous phase, 60° C., no acetic acid
[14] = toluene/water, 12 wt.% chlorophthalic acid in aqueous phase, 22° C., no acetic acid
[15] = toluene/water, 17 wt.% acetic acid in initial aqueous phase, 22 wt.% chlorophthalic acid, 22° C.
[16] = toluene/water, 22 wt.% chlorophthalic acid in aqueous phase, 60° C., no acetic acid
[17] = toluene/water, 23 wt.% chlorophthalic acid in aqueous phase, 22° C., no acetic acid
[18] = toluene/water, 26 wt.% acetic acid in initial aqueous phase, 22 wt.% chlorophthalic acid, 22° C.
[19] = toluene/water, 35 wt.% chlorophthalic acid in aqueous phase, 22° C., no acetic acid
[20] = toluene/water, 35 wt.% chlorophthalic acid in aqueous phase, 60° C., no acetic acid
[21] = toluene/water, 36 wt.% acetic acid in initial aqueous phase, 22 wt.% chlorophthalic acid, 22° C.
[22] = xylene/water, 12 wt.% chlorophthalic acid in aqueous phase, 22° C., no acetic acid
[23] = xylene/water, 23 wt.% chlorophthalic acid in aqueous phase, 22° C., no acetic acid
[24] = xylene/water, 35 wt.% chlorophthalic acid in aqueous phase, 22° C., no acetic acid

K values ([1]; ODCB/water, 5.5 wt.% chlorophthalic acid in aqueous phase, 22° C., no acetic acid): 1.1
beta values ([1]; ODCB/water, 5.5 wt.% chlorophthalic acid in aqueous phase, 22° C., no acetic acid, chlorophthalides vs chlorophthalic acids): 400
K values [1, 3]: 2.3
beta values [1, 3]: 200
K values [1, 4]: 3.1
beta values [1, 4]: 600
K values [1, 5]: 1.8
beta values [1, 5]: 800
K values [1, 6]: 2.2
beta values [1, 6]: 200
K values [1, 7]: 2.5
beta values [1, 7]: 300
K values [1, 8]: 2.8
beta values [1, 8]: 800
K values [1, 9]: 2.2
beta values [1, 9]: 300
K values [1, 10]: 1.9
beta values [1, 10]: 100
K values ([1]; ODCB/water, 29 wt.% acetic acid in initial aqueous phase, 22 wt.% chlorophthalic acid, 60° C.): 2.3
K values [1, 11]: 1.7
beta values [1, 11]: 100
K values [1, 12]: 1.4
beta values [1, 12]: 260
K values [1, 13]: 1.7
beta values [1, 13]: 800
beta values ([1]; ODCB/water, 37 wt.% acetic acid in initial aqueous phase, 22 wt.% chlorophthalic acid, 60° C.): 100
values for K ([1]; acetic acid 0-35 wt.% based on the weight of the water, 22 wt.% solids): 1.7-2.6
selectivity numbers for chlorophthalic acids and chlorophthalide ([1]; o-dichlorobenzene, chlorophthalic acids about 20 wt.%, chlorophthalide about 0.6%): ~500
selectivity numbers for chlorophthalic acids and chlorophthalide ([1]; toluene and xylene, chlorophthalic acids about 20 wt.%, chlorophthalide about 0.6%): 4000-5000
values of K ([1]; toluene, xylene and o-dichlorobenzene, chlorophthalic acids about 20 wt.%, chlorophthalide about 0.6%): 1.5-2.5
K values ([1]; toluene/water, 6 wt.% chlorophthalic acid in aqueous phase, 22° C., no acetic acid): 1.8
beta values ([1]; toluene/water, 6 wt.% chlorophthalic acid in aqueous phase, 22° C., no acetic acid, chlorophthalides vs chlorophthalic acids): 800
beta values ([1]; toluene/water, 10 wt.% acetic acid in initial aqueous phase, 22 wt.% chlorophthalic acid, 60° C.): 900
K values [1, 14]: 2.6
beta values [1, 14]: 2500
K values [1, 15]: 2.5
beta values [1, 15]: 400
K values ([1]; toluene/water, 19 wt.% acetic acid in initial aqueous phase, 22 wt.% chlorophthalic acid, 60° C.): 2.9
K values [1, 16]: 3.5
beta values [1, 16]: 1800
K values [1, 17]: 2.5
beta values [1, 17]: 3900
K values [1, 18]: 2.2
beta values [1, 18]: 150
K values ([1]; toluene/water, 29 wt.% acetic acid in initial aqueous phase, 22 wt.% chlorophthalic acid, 60° C.): 2.4
K values [1, 19]: 1.7
beta values [1, 19]: 3400
K values [1, 20]: 2.0
beta values [1, 20]: 1400
K values [1, 21]: 1.9
beta values [1, 21]: 100
beta values ([1]; toluene/water, 38 wt.% acetic acid in initial aqueous phase, 22 wt.% chlorophthalic acid, 60° C.): 50
selectivity numbers ([1]; toluene, 0 wt.% acetic acid, 22 wt.% solids): 4000
selectivity numbers ([1]; toluene, 18 wt.% acetic acid, 22 wt.% solids): about 400
K values [1, 22]: 2.5
beta values [1, 22]: 3500
K values [1, 23]: 1.8
beta values [1, 23]: 4700
K values [1, 24]: 1.3
beta values [1, 24]: 4200
beta values ([2]; ODCB/water, 29 wt.% acetic acid in initial aqueous phase): 150
K values ([2]; ODCB/water, 37 wt.% acetic acid in initial aqueous phase): 1.7
K values ([2]; toluene/water, 10 wt.% acetic acid in initial aqueous phase): 3.3
beta values ([2]; toluene/water, 19 wt.% acetic acid in initial aqueous phase): 300
beta values ([2]; toluene/water, 29 wt.% acetic acid in initial aqueous phase): 150
K values ([2]; toluene/water, 38 wt.% acetic acid in initial aqueous phase): 1.6
Substance: 4- and 7-chlorophthalide [chlorophthalides]
